Test results published in ChEMBL document CHEMBL5625170, “Design, synthesis, and biological evaluation of novel penindolone derivatives as potential inhibitors of hemagglutinin-mediated membrane fusion” (Eur J Med Chem, 2023).

Experiments:
[1] = Cytotoxicity against dog MDCK cells assessed as cell viability measured after 48 hrs by MTT assay; format: toxicity, cell-based, Canis lupus familiaris
[2] = Selectivity index, ratio of CC50 for cytotoxicity against dog MDCK cells to IC50 for anti-viral activity against Influenza A virus (A/Puerto Rico/8/34 infected in MDCK cells; format: toxicity, cell-based; details: read-out: Selectivity Index

| SMILES | CC50 at 48 h [1] | selectivity ratio [2] |
| --- | --- | --- |
| CC(=O)c1cc(C)c(O)c(Cc2[nH]c3ccc(F)cc3c2Cc2c(O)c(C)cc(C(C)=O)c2O)c1O | 281 µM |  |
| CC(=O)c1cc(C)c(O)c(Cc2[nH]c3ccc(-c4ccc5ccccc5c4)cc3c2Cc2c(O)c(C)cc(C(C)=O)c2O)c1O | > 300 µM | > 14.5 |
| COc1cccc(OC)c1-c1ccc2c(Cc3c(O)c(C)cc(C(C)=O)c3O)c(Cc3c(O)c(C)cc(C(C)=O)c3O)[nH]c2c1 | > 300 µM | > 15.4 |
| CC(=O)c1cc(C)c(O)c(Cc2[nH]c3cc(-c4cc(C)cc(C)c4)ccc3c2Cc2c(O)c(C)cc(C(C)=O)c2O)c1O | > 300 µM | > 29.7 |
| COc1cc(-c2ccc3c(Cc4c(O)c(C)cc(C(C)=O)c4O)c(Cc4c(O)c(C)cc(C(C)=O)c4O)[nH]c3c2)cc(OC)c1OC | > 300 µM | > 14.9 |
| CC(=O)c1cc(C)c(O)c(Cc2[nH]c3cc(-c4csc5ccccc45)ccc3c2Cc2c(O)c(C)cc(C(C)=O)c2O)c1O | > 300 µM | > 14.4 |
| COc1ccc2cc(-c3ccc4[nH]c(Cc5c(O)c(C)cc(C(C)=O)c5O)c(Cc5c(O)c(C)cc(C(C)=O)c5O)c4c3)ccc2c1 | > 300 µM | > 14.2 |
| CC(=O)c1cc(C)c(O)c(Cc2[nH]c3ccc(/C=C/c4ccccc4)cc3c2Cc2c(O)c(C)cc(C(C)=O)c2O)c1O | > 300 µM |  |
| CC(=O)c1cc(C)c(O)c(Cc2[nH]c3cc(-c4ccccc4F)ccc3c2Cc2c(O)c(C)cc(C(C)=O)c2O)c1O | > 300 µM |  |
| CC(=O)c1cc(C)c(O)c(Cc2[nH]c3ccc(-c4ccc5c(c4)OCCO5)cc3c2Cc2c(O)c(C)cc(C(C)=O)c2O)c1O | > 300 µM | > 23.1 |
| CC(=O)c1cc(C)c(O)c(Cc2[nH]c3ccc(Br)cc3c2Cc2c(O)c(C)cc(C(C)=O)c2O)c1O | 233 µM | 9.2 |
| CC(=O)c1cc(C)c(O)c(Cc2[nH]c3ccc(-c4ccc(C)cc4)cc3c2Cc2c(O)c(C)cc(C(C)=O)c2O)c1O | > 300 µM | > 19.4 |
| CC(=O)c1cc(C)c(O)c(Cc2[nH]c3ccc(-c4ccsc4)cc3c2Cc2c(O)c(C)cc(C(C)=O)c2O)c1O | > 300 µM |  |
| CC(=O)c1cc(C)c(O)c(Cc2[nH]c3cc(-c4ccc5c(c4)OCCO5)ccc3c2Cc2c(O)c(C)cc(C(C)=O)c2O)c1O | > 300 µM | > 15.5 |
| CC(=O)c1cc(C)c(O)c(Cc2[nH]c3cc(-c4ccc(C)cc4)ccc3c2Cc2c(O)c(C)cc(C(C)=O)c2O)c1O | > 300 µM | > 12.4 |
| CC(=O)c1cc(C)c(O)c(Cc2[nH]c3ccc(-c4ccc5c(c4)CCO5)cc3c2Cc2c(O)c(C)cc(C(C)=O)c2O)c1O | > 300 µM |  |
| COc1cccc(OC)c1-c1ccc2[nH]c(Cc3c(O)c(C)cc(C(C)=O)c3O)c(Cc3c(O)c(C)cc(C(C)=O)c3O)c2c1 | 271 µM | 12.9 |
| CC(=O)c1cc(C)c(O)c(Cc2[nH]c3ccc(-c4c5ccccc5c(-c5ccccc5)c5ccccc45)cc3c2Cc2c(O)c(C)cc(C(C)=O)c2O)c1O | > 300 µM |  |
| CC(=O)c1cc(C)c(O)c(Cc2[nH]c3ccc(-c4cccc(O)c4)cc3c2Cc2c(O)c(C)cc(C(C)=O)c2O)c1O | 152 µM |  |
| COc1ccc2c(Cc3c(O)c(C)cc(C(C)=O)c3O)c(Cc3c(O)c(C)cc(C(C)=O)c3O)[nH]c2c1 | > 300 µM | > 23.8 |
| C=CCn1c(Cc2c(O)c(C)cc(C(C)=O)c2O)c(Cc2c(O)c(C)cc(C(C)=O)c2O)c2ccccc21 | > 300 µM |  |

| SMILES | CC50 at 48 h [1] | selectivity ratio [2] |
| --- | --- | --- |
| CC(=O)c1cc(C)c(O)c(Cc2[nH]c3ccc(-c4ccc(Cl)cc4)cc3c2Cc2c(O)c(C)cc(C(C)=O)c2O)c1O | > 300 µM | > 11.1 |
| CC(=O)c1cc(C)c(O)c(Cc2[nH]c3ccc(-c4cc(C(F)(F)F)cc(C(F)(F)F)c4)cc3c2Cc2c(O)c(C)cc(C(C)=O)c2O)c1O | > 300 µM |  |
| CC(=O)c1cc(C)c(O)c(Cc2[nH]c3cc(-c4cc(C(F)(F)F)cc(C(F)(F)F)c4)ccc3c2Cc2c(O)c(C)cc(C(C)=O)c2O)c1O | > 300 µM |  |
| CC(=O)c1cc(C)c(O)c(Cc2[nH]c3ccc(Cl)cc3c2Cc2c(O)c(C)cc(C(C)=O)c2O)c1O | > 300 µM |  |
| CC(=O)c1cc(C)c(O)c(Cc2[nH]c3ccc(-c4ccc5ncccc5c4)cc3c2Cc2c(O)c(C)cc(C(C)=O)c2O)c1O | > 300 µM | > 16.2 |
| CC(=O)c1cc(C)c(O)c(Cc2[nH]c3cc(-c4cccc(F)c4)ccc3c2Cc2c(O)c(C)cc(C(C)=O)c2O)c1O | > 300 µM |  |
| CC(=O)c1cc(C)c(O)c(Cc2c(Cc3c(O)c(C)cc(C(C)=O)c3O)n(Cc3ccc(F)cc3)c3ccccc23)c1O | > 300 µM |  |
| CC(=O)c1cc(C)c(O)c(Cc2c(Cc3c(O)c(C)cc(C(C)=O)c3O)n(Cc3ccc(Cl)cc3)c3ccccc23)c1O | > 300 µM |  |
| CSc1ccc(-c2ccc3[nH]c(Cc4c(O)c(C)cc(C(C)=O)c4O)c(Cc4c(O)c(C)cc(C(C)=O)c4O)c3c2)cc1 | > 300 µM | > 17.1 |
| CC(=O)c1cc(C)c(O)c(Cc2[nH]c3ccc(-c4ccccc4F)cc3c2Cc2c(O)c(C)cc(C(C)=O)c2O)c1O | > 300 µM |  |
| COc1ccc(-c2ccc3c(Cc4c(O)c(C)cc(C(C)=O)c4O)c(Cc4c(O)c(C)cc(C(C)=O)c4O)[nH]c3c2)cc1 | > 300 µM | > 34.5 |
| CC(=O)c1cc(C)c(O)c(Cc2[nH]c3ccc(-c4ccc(F)cc4)cc3c2Cc2c(O)c(C)cc(C(C)=O)c2O)c1O | 212 µM |  |
| CC(=O)c1cc(C)c(O)c(Cc2[nH]c3cc(-c4cc(C(C)(C)C)cc(C(C)(C)C)c4)ccc3c2Cc2c(O)c(C)cc(C(C)=O)c2O)c1O | 280 µM | 10.4 |
| COc1ccc(Cn2c(Cc3c(O)c(C)cc(C(C)=O)c3O)c(Cc3c(O)c(C)cc(C(C)=O)c3O)c3ccccc32)cc1 | > 300 µM |  |
| CC(=O)c1cc(C)c(O)c(Cc2[nH]c3cc(-c4ccccc4)ccc3c2Cc2c(O)c(C)cc(C(C)=O)c2O)c1O | > 300 µM | > 12.8 |
| CC(=O)c1cc(C)c(O)c(Cc2[nH]c3cc(/C=C/c4ccccc4)ccc3c2Cc2c(O)c(C)cc(C(C)=O)c2O)c1O | > 300 µM |  |
| CC(=O)c1cc(C)c(O)c(Cc2[nH]c3cc(-c4ccsc4)ccc3c2Cc2c(O)c(C)cc(C(C)=O)c2O)c1O | > 300 µM |  |
| CC(=O)c1cc(C)c(O)c(Cc2[nH]c3cc(-c4ccc5c(c4)CCO5)ccc3c2Cc2c(O)c(C)cc(C(C)=O)c2O)c1O | > 300 µM |  |
| CC(=O)c1cc(C)c(O)c(Cc2[nH]c3cc(-c4ccc5cccnc5c4)ccc3c2Cc2c(O)c(C)cc(C(C)=O)c2O)c1O | > 300 µM |  |
| CC(=O)c1cc(C)c(O)c(Cc2[nH]c3cc(-c4cccc(O)c4)ccc3c2Cc2c(O)c(C)cc(C(C)=O)c2O)c1O | 126 µM |  |
| COc1ccc(-c2ccc3[nH]c(Cc4c(O)c(C)cc(C(C)=O)c4O)c(Cc4c(O)c(C)cc(C(C)=O)c4O)c3c2)cc1OC | > 300 µM | > 16.6 |

| SMILES | CC50 at 48 h [1] | selectivity ratio [2] |
| --- | --- | --- |
| CC(=O)c1cc(C)c(O)c(Cc2[nH]c3cc(-c4ccc5ccccc5c4)ccc3c2Cc2c(O)c(C)cc(C(C)=O)c2O)c1O | > 300 µM | > 11.5 |
| CC(=O)c1cc(C)c(O)c(Cc2[nH]c3ccc(-c4cc(C)cc(C)c4)cc3c2Cc2c(O)c(C)cc(C(C)=O)c2O)c1O | > 300 µM | > 22.2 |
| CC(=O)c1cc(C)c(O)c(Cc2[nH]c3ccc(-c4ccccc4)cc3c2Cc2c(O)c(C)cc(C(C)=O)c2O)c1O | > 300 µM | > 11.5 |
| COc1ccc(-c2ccc3c(Cc4c(O)c(C)cc(C(C)=O)c4O)c(Cc4c(O)c(C)cc(C(C)=O)c4O)[nH]c3c2)cc1OC | 240 µM | 12.2 |
| COc1cc(-c2ccc3[nH]c(Cc4c(O)c(C)cc(C(C)=O)c4O)c(Cc4c(O)c(C)cc(C(C)=O)c4O)c3c2)cc(OC)c1OC | > 300 µM | > 37.5 |
| COc1ccc2cc(-c3ccc4c(Cc5c(O)c(C)cc(C(C)=O)c5O)c(Cc5c(O)c(C)cc(C(C)=O)c5O)[nH]c4c3)ccc2c1 | > 300 µM | > 12.9 |
| CC(=O)c1cc(C)c(O)c(Cc2[nH]c3cc(-c4ccc(F)cc4)ccc3c2Cc2c(O)c(C)cc(C(C)=O)c2O)c1O | 256 µM | 13.4 |
| CC(=O)c1cc(C)c(O)c(Cc2[nH]c3cc(-c4ccc(Cl)cc4)ccc3c2Cc2c(O)c(C)cc(C(C)=O)c2O)c1O | > 300 µM |  |
| CC(=O)c1cc(C)c(O)c(Cc2[nH]c3ccc(-c4cccc(F)c4)cc3c2Cc2c(O)c(C)cc(C(C)=O)c2O)c1O | > 300 µM |  |
| CC(=O)c1cc(C)c(O)c(Cc2[nH]c3cc(-c4c5ccccc5c(-c5ccccc5)c5ccccc45)ccc3c2Cc2c(O)c(C)cc(C(C)=O)c2O)c1O | > 300 µM |  |
| CC(=O)c1cc(C)c(O)c(Cc2c(Cc3c(O)c(C)cc(C(C)=O)c3O)n(Cc3ccccc3)c3ccccc23)c1O | > 300 µM |  |
| CC(=O)c1cc(C)c(O)c(Cc2[nH]c3ccc(-c4csc5ccccc45)cc3c2Cc2c(O)c(C)cc(C(C)=O)c2O)c1O | > 300 µM | > 12.8 |
| COc1ccc2[nH]c(Cc3c(O)c(C)cc(C(C)=O)c3O)c(Cc3c(O)c(C)cc(C(C)=O)c3O)c2c1 | > 300 µM | > 18.9 |
| CC(=O)c1cc(C)c(O)c(Cc2c(Cc3c(O)c(C)cc(C(C)=O)c3O)n(N)c3ccccc23)c1O | > 300 µM |  |
| CC(=O)c1cc(C)c(O)c(Cc2[nH]c3ccc(-c4cc(C(C)(C)C)cc(C(C)(C)C)c4)cc3c2Cc2c(O)c(C)cc(C(C)=O)c2O)c1O | > 300 µM |  |
| CC(=O)c1cc(C)c(O)c(Cc2[nH]c3cc(-c4ccc(C(F)(F)F)cc4)ccc3c2Cc2c(O)c(C)cc(C(C)=O)c2O)c1O | > 300 µM | > 12 |
| CC(=O)c1cc(C)c(O)c(Cc2[nH]c3ccc(-c4ccc(C(F)(F)F)cc4)cc3c2Cc2c(O)c(C)cc(C(C)=O)c2O)c1O | > 300 µM | > 13.7 |
| CC(=O)c1cc(C)c(O)c(Cc2[nH]c3cc(-c4c5ccccc5cc5ccccc45)ccc3c2Cc2c(O)c(C)cc(C(C)=O)c2O)c1O | > 300 µM | > 36.1 |
| CC(=O)c1cc(C)c(O)c(Cc2[nH]c3ccc(C)cc3c2Cc2c(O)c(C)cc(C(C)=O)c2O)c1O | > 300 µM | > 14.6 |
